From patent US9415070B2, “Methods and compositions for localized delivery of agents to virally infected cells and tissues” (Massachusetts Institute of Technology, priority 2012, dated 2016)

Tests used:
[1] = system: infected target cells; experiment: in vitro eradication assay, HIV-specific T cells co-cultured with infected target cells; type: cell-based; conditions: in the presence of the latency reversing drug; FIG. 4
From the text: The in vitro cell eradication assay presented in this Example was directed to determining if T pharmacytes can induce expression of HIV expression in latently infected cells and kill those cells. HIV-specific T cells and Cytomegalovirus (CMV)-specific T cells were co-cultured with infected target cells (and mock-infected target cells) without the addition of any exogenous cytokines.

[2] = system: B lymphoblastoid cell line (BLCL); experiment: lysis of BLCL by recombinant perforin (FSC/SSC flow cytometry); type: cell-based; conditions: FIG. 12A
Experimental: The next series of experiments were designed to test the effects of different concentrations of recombinant perforin on lysis of a B lymphoblastoid cell line (BLCL). […] The cell populations with FSC/SSC characteristics of viable BLCL have been gated. 1 nM perforin appeared to be sufficient for clear cell lysis. To investigate whether perforin release from T cells is sufficient to trigger release of payload from nanoparticles conjugated to T cells, ICMV nanoparticles encapsulating Alexa-647-labeled OVA were treated with 1 nM perforin for 16 hours, or maintained as a no-treatment control. As a positive control for complete lysis, NPs were treated with 2% Triton X-100. Fluorescence was quantified at 647 nm absorbance and 695 nm emission.

IL-15: cytokine used as latency reversing drug
response of HIV-specific T cells to infected target cells [1]: specifically respond to these infected target cells only in the presence of latency reversing drugs

B1: perforin: pore-forming protein, 67-kilodalton multidomain protein (protein, UniProt P14222 22-555, looked up)
Perforin-1: PCHTAARSECKRSHKFVPGAWLAGEGVDVTSLRRSGSFPVDTQRFLRPDGTCTLCENALQEGTLQRLPLALTNWRAQGSGCQRHVTRAKVSSTEAVARDAARSIRNDWKVGLDVTPKPTSNVHVSVAGSHSQAANFAAQKTHQDQYSFSTDTVECRFYSFHVVHTPPLHPDFKRALGDLPHHFNASTQPAYLRLISNYGTHFIRAVELGGRISALTALRTCELALEGLTDNEVEDCLTVEAQVNIGIHGSISAEAKACEEKKKKHKMTASFHQTYRERHSEVVGGHHTSINDLLFGIQAGPEQYSAWVNSLPGSPGLVDYTLEPLHVLLDSQDPRREALRRALSQYLTDRARWRDCSRPCPPGRQKSPRDPCQCVCHGSAVTTQDCCPRQRGLAQLEVTFIQAWGLWGDWFTATDAYVKLFFGGQELRTSTVWDNNNPIWSVRLDFGDVLLATGGPLRLQVWDQDSGRDDDLLGTCDQAPKSGSHEVRCNLNHGHLKFRYHARCLPHLGGGTCLDYVPQMLLGEPPGNRSGAVW
perforin concentration sufficient for clear cell lysis [2]: 1 nM
